Counter-ions that a name gives are not always drawn. Like-named read-outs stand apart in the source and are kept apart here.
Legend:
human NK2 receptor = target: T1, human NK2 receptor (Homo sapiens, UniProt P21452); assay: Human NK2 receptor affinity: competition with [3H]-NKA for binding to CHO cell membranes
T1 sequence (P21452 1-398): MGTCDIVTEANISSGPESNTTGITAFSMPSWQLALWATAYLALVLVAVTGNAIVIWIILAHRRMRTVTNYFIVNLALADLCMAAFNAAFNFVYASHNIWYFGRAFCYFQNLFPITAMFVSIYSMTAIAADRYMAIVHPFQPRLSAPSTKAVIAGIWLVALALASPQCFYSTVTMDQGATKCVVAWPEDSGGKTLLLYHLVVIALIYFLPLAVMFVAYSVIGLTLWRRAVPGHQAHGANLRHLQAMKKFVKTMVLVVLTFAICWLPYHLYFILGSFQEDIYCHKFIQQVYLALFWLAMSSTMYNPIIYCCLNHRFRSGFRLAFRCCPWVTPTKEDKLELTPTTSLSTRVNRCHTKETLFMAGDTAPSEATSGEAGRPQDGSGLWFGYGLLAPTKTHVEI
Protocol: The affinity of the compounds of formula (I) and their salts for the human NK2 receptor can be tested in vitro by testing their ability to compete with [^3H]-NKA (neurokinin A) for binding to membranes prepared from Chinese hamster ovary cells expressing the cloned human NK2 receptor. In this method, washed Chinese hamster ovary cell membranes are prepared as described for the previous method where IM9 cells are used instead. The membranes are incubated (90 min, 25°C) with [^3H]-NKA and with a range of concentrations of the test compound. Non-specific binding was determined in the presence of 10µM NKA.
Human NK2 receptor affinity was tested in vitro by testing the ability to compete with [^3H]-NKA for binding to membranes prepared from Chinese hamster ovary cells expressing the cloned human NK2 receptor using the method set out on page 10. The pKi was then determined.
(§1) The "pKi" measurement is the negative logarithm of the molar affinity of the test compound for the receptor as determined in radioligand binding assays using standard protocols. A 1.0 log. unit difference in either the NK2 or NK3 receptor affinity figures corresponds to a 10-fold activity difference.

NK3 receptor = target: T2, NK3 receptor (Cavia porcellus, UniProt P30098); assay: NK3 receptor affinity: inhibition of [3H]-senktide binding to guinea pig cortex membranes
T2 construct: membranes from guinea pig cortex; from tissue; host or cells: guinea pig cortex membranes
T2 sequence (P30098 1-440): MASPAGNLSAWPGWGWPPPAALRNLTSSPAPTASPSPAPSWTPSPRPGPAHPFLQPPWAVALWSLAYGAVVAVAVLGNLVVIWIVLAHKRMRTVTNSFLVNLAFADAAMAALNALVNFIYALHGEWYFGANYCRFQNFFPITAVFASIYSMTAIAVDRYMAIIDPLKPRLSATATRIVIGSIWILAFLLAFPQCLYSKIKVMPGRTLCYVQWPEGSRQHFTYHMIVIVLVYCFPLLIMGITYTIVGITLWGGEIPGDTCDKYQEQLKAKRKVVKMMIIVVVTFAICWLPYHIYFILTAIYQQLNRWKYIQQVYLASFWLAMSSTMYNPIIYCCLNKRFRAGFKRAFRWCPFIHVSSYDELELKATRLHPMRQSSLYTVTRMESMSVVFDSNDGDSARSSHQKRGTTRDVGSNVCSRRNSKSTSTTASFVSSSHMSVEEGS
Protocol: The compounds of the formula (I) and their salts can be tested for NK3 receptor affinity, in vitro, by testing their ability to inhibit [^3H]-senktide binding to membranes from guinea pig cortex using the method of Guard, et al, Br.J.Pharmacol., 99, 767-773 (1990).
NK3 receptor affinity was tested, in vitro, by the method described on pages 10 and 11 by testing the ability to inhibit [^3H]-senktide binding to membranes from guinea pig cortex using the method of Guard, et al, Br.J.Pharmacol., 99, 767-773 (1990). The pKi was then determined.
as §1

[1] = In vitro metabolic stability: disappearance half-life in human liver microsomes (HLM/37); format: in vitro ADME; settings: human liver microsomes HLM/37 (0.5µM cytochrome P450), test compound 1µM, 37°C, NADPH, 60 minutes
Protocol: The in vitro metabolic stability of the compounds of the formula (I) and their salts can be tested by incubating samples for 1 hour at 37°C in the presence of a "moderate activity" (re. concentrations of cytochrome p450 enzymes present) human liver microsomal preparation (prepared from human liver homogenates). The samples were analysed by HPLC at regular intervals during this one hour period and the half-life (t½) determined (in minutes).
The metabolic stability of the compounds was determined in vitro by the method described on page 11 according to the following experimental protocol.
Transplant-quality human liver tissue was obtained from the International Institute for the Advancement of Medicine (Exton, PA). The donors ranged in age from 26 to 65 years old and included 3 males and 3 females. Hepatic microsomes were prepared from individual human livers by the process of differential centrifugation. Briefly, the liver tissue was homogenised in 50mM Tris HCI (pH 7.4) containing 250mM sucrose and then centrifuged at 9,000G for 20 minutes to remove the cell debris and nuclear fraction. The supernatant layer was removed and further centrifuged at 105,000G for 60 minutes to pellet the microsomal fraction. […] The cytochrome P450 content was determined using the method of Omura, T., Sato, R., J. Biol. Chem., 239, 2379-2385 (1964) and the protein concentration was determined using the method of Lowry et al., J. Biol. Chem., 193, 265-275 (1951), with bovine serum albumin as the protein standard.
The metabolic activities of the 6 major drug metabolising cytochrome P450 enzymes were determined for HLM/37 and compared to values obtained from a bank of individual human livers (n = 19). […]
Aliquots (100µl) were removed from the incubation at 0, 3, 5, 10, 15, 20, 30, 45 and 60 minutes after the addition of NADPH. […] After centrifugation 150µl aliquots were removed and 120µl of each of these analysed by HPLC on a Hypersil HS C18 5µ column (50x4.6mm) with a mobile phase of methanol:water (90:10, by volume) containing 2mM ammonium acetate. […]

Row | SMILES | Ki (human NK2 receptor; [3H]-NKA, membranes from Chinese hamster ovary cells expressing the cloned human NK2 receptor, 90 min, 25°C, read-out: pKi (NK2) (converted)) [nM] | Ki (NK3 receptor; [3H]-senktide, membranes from guinea pig cortex, read-out: pKi (NK3) (converted)) [nM] | half-life at 1 µM [1] [min] | Ki (human NK2 receptor) [nM] | Ki (NK3 receptor) [nM]
1 | O=C(c1ccccc1)N1CCC[C@](CCN2CCC(C3CCOCC3)CC2)(c2ccc(Cl)c(Cl)c2)C1 [Example 2] | 6.31 | 63.1 | 28 | – | –
2 | CS(=O)(=O)N1CCC(C2CN(CC[C@]3(c4ccc(Cl)c(Cl)c4)CCCN(C(=O)c4ccccc4)C3)C2)CC1 [Example 6, 3(S)-1-Benzoyl-3-(3,4-dichlorophenyl)-3-{2-[3-(1-methylsulphonyl-4-piperidinyl)azetidin-1-yl]ethyl}piperidine hydrochloride] | – | – | 53 | 5.01 | 39.8
3 | CS(=O)(=O)N1CC(C2CCN(CC[C@]3(c4ccc(Cl)c(Cl)c4)CCCN(C(=O)c4ccccc4)C3)CC2)C1 [Example 10, 3(S)-1-Benzoyl-3-(3,4-dichlorophenyl)-3-{2-[4-(1-methylsulfonylazetidin-3-yl)piperidin-1-yl]ethyl}piperidine] | – | – | 32 | 5.01 | 20

Source: EP0992493A1, “Substituted benzoylpiperidine derivatives and their use as Neurokinin antagonists” (PFIZER INC., priority 1998, dated 2000)
